Measured values reported in patent publication US20060183794A1, “Drug composition containing nf-kb inhibitor” (priority 2002, published 2006).

Columns and labels:
HUVECs = assay: Toxicity to and proliferation of HUVECs; type: cell-based, human; details: DHMEQ 3 μg/ml
[1] = test system: ATL cells of ATL patients; assay: MTT assay, ATL cells from peripheral blood of ATL patients; type: cell-based, human; details: three cases; 10 μg/ml, 24 hours
Experimental: Mononuclear cells were isolated from peripheral blood cells of ATL patients and ATL cells were isolated. DHM2EQ was added to the isolated ATL cells of three cases at a final concentration of 10 μg/ml and the cells were incubated for 24 hours. The proliferation-inhibitory effect was examined by the MTT assay. Using the cells to which solvent DMSO had been added in equal volume as controls, the proliferation-inhibitory effect was evaluated by the ratio of the MMT values of DHM2EQ-treated cells to those of DHM2EQ-untreated cells, i.e., (MTT values of DHM2EQ-treated cells/MTT values of DHM2EQ-untreated cells).

K562 = assay: Hoechst staining apoptosis assay, control cell line K562; type: cell-based; details: 10 μg/ml, 72 hours
Experimental: DHM2EQ was added to the ATL cell lines (MT-1 and TL-Om1) and a control cell line (K562) at a final concentration of 10 μg/ml, followed by incubation for 72 hours. Subsequently, apoptosis was examined by observing nuclear […] or fragmentation on Hoechst staining with a fluorescence microscope. Cells to which the solvent DMSO had been added in equal volume were also examined in the same manner.

[2] = test system: Hodgkin's lymphoma cell lines KMH-2 and L-540; assay: MTT assay, proliferation of Hodgkin's lymphoma cell lines; type: cell-based
Experimental: Cells from the ATL cell lines (MT-1 and TL-Om1) and a control cell line (K562) were plated in 96-well plates at 1×10^5 cells/well and DHM2EQ was added at the desired final concentrations (2, 5, and 10 μg/ml). Cells to which the solvent DMSO had been added in equal volume (0 μg/ml) were used as […] incubation for 72 hours, cell viability was judged by the MTT assay. Relative MTT values were obtained as the ratio of the MMT values of DHM2EQ-treated cells to those of DHM2EQ-untreated cells, i.e., (MTT values of DHM2EQ-treated cells/MTT values of DHM2EQ-untreated cells)×100(%).
DHM2EQ was added to the ATL cell lines (MT-1 and TL-Om1) and a control cell line (K562) at a final concentration of 10 μg/ml and the cells were incubated for 12, 24, 48, and 72 hours. The proliferation-inhibitory effect was examined by the MTT assay. Cells to which the solvent DMSO had been added in equal volume were used as controls. Relative MTT values were obtained in the same manner as the aforementioned (1).
Time-course analysis and concentration dependence analysis of the inhibitory effect of DHM2EQ on proliferation of Hodgkin's lymphoma cells were performed in the same manner as in Example 2. As Hodgkin's lymphoma cells, the Hodgkin's lymphoma cell lines KMH-2 and L-540 were used.

[3] = test system: human breast cancer cell line MCF-7 transplanted into SCID mice; assay: MCF-7 subcutaneous tumor model in SCID mice; type: in vivo; details: DHMEQ 4 mg/kg i.p. three times per week
Experimental: Subcutaneous tumor model SCID mice (CLEA Japan) were given DHMEQ (4 mg/kg) three days a week and the volume of the tumors were periodically measured for examination of the suppressive effect of DHMEQ on tumor growth. The body weights of the mice were also measured simultaneously.
MCF-7 (1×10^6 cells) suspended in 100 μl of PBS was inoculated subcutaneously into the back of six-week-old SCID mice. DHMEQ was suspended in 0.5% methylcellulose (Nacalai Tesque) solution at 4 mg/kg in 200 μl. The drug-containing solution or 0.5% methylcellulose solution (200 μl) was intraperitoneally administered three times per week (n=8/group), starting on the next day after inoculation. The major axis and minor axis of the tumors were measured with calipers every seven days. The tumor volume was calculated as follows: (major axis)×(minor axis)^2/2. The body weights were also measured simultaneously.

[4] = test system: human pancreatic cancer cell line PK-2; assay: Human pancreatic cancer PK-2 subcutaneous tumor in SCID mice; type: in vivo; details: PK-2 s.c., 12 mg/kg i.p.
Experimental: The in vivo suppressive effect of DHMEQ on proliferation of tumor cells in human pancreatic cancer. The human pancreatic cancer cell line PK-2 (2×10^6 cells) was inoculated subcutaneously in the right back of SCID mice (n=7) and then 12 mg/kg DHMEQ was injected intraperitoneally (i.p.) at a dose of 200 μl every other day for five days. Subsequently, the major axis and minor axis of the tumors were measured every seven days. The tumor volume was calculated as follows: (major axis)×(minor axis)^2×0.5.

[5] = test system: human pancreatic cancer cell lines, Panc-1, PK-8, and Colo357; assay: In vitro proliferation of human pancreatic cancer cell lines, DHMEQ with irradiation; type: cell-based
Experimental: The in vitro suppressive effect of DHMEQ on proliferation of human pancreatic cancer cell lines when DHMEQ and irradiation are used in combination was investigated. The human pancreatic cancer cell lines, Panc-1, PK-8, and Colo357 were plated 10 cm dishes (5×10^5 cells each). After two days, cells were irradiated with either 2.5 Gy or 10 Gy radiation, followed by administration of 10 μg/ml DHMEQ for 4 hours in the combinatin group. The number of cells was measured after 24 hours. Either the point of the completion of irradiation or the point of the start of the drug administration was assumed to be 0 hours.

NF-κB = NF-κB (Homo sapiens, UniProt P19838+Q04206); assay: Gel shift assay of constitutive NF-κB activation in ATL cell lines; type: cell-based; set-up: endogenous in cells; details: MT-1 and TL-Om1; 10 μg/ml DHM2EQ, 12 hours
Experimental: The ATL cell lines (MT-1 and TL-Om1) and the control cell lines (K562 and Jurkat+TNF), 2×10^6 cells each, were treated with 10 μg/ml DHM2EQ for 12 hours, and nuclear extract was prepared from each cell line. Likewise, nuclear extract was prepared also from the cell lines not treated with DHM2EQ. MT-1 and TL-Om1 are the cell lines transformed with HTLV-1; NF-κB is activated in these cell lines. K562 (myelocytic leukemia cell line) is a cell line in which constitutive NF-κB is not confirmed (a negative control), and Jurkat+TNF is a […] consensus oligomers (Promega) were end-labeled with [γ-^32P]-ATP and polynucleotide kinase (PNK) to prepare ^32P-labeled NF-κB probes.
The equivalent of 2 μg of nuclear extract protein was mixed with NF-κB probes (the equivalent of 10,000 cpm) in a volume of 20 μl and reacted at room temperature for 30 min. The solution after the reaction was subjected to 7.5% polyacrylamide gel electrophoresis. The gel was then dried and exposed to an X-ray film.

Sequence of NF-κB (Q04206 whole entry): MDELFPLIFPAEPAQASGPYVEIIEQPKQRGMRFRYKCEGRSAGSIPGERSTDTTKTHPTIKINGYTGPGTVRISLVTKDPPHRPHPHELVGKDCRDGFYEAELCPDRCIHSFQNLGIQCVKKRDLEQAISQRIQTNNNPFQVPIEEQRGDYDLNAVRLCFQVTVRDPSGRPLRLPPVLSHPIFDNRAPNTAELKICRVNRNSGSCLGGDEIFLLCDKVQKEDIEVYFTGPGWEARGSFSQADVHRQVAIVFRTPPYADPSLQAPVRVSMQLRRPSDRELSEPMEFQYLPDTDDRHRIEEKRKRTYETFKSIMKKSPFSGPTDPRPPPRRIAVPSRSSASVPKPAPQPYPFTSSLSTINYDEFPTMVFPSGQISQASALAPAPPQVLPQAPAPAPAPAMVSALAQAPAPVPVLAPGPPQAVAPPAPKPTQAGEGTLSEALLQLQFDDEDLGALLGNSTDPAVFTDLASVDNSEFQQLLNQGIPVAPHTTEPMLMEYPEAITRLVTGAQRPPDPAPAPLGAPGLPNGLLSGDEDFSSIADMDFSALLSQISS
Sequence of NF-κB (P19838 1-433 limits assumed): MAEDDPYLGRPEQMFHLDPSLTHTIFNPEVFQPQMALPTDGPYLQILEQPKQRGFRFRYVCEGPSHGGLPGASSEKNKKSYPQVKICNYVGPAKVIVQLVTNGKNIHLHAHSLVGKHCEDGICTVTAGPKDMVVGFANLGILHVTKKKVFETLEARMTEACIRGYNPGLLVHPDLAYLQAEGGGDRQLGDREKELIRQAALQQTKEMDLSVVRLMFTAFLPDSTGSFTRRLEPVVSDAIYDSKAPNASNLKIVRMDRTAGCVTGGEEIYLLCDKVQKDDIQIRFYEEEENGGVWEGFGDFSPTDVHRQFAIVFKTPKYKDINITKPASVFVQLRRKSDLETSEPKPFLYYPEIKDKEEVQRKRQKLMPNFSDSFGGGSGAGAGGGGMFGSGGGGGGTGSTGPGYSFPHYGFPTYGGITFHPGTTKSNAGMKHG

O=C(NC1=CC(=O)C2OC2C1O)c1ccccc1O (centres unmarked) [DHMEQ, 5,6-epoxy-4-hydroxy-3-salicyloylamino-2-cyclohexenone]
toxicity to HUVECs and suppression of their proliferation (HUVECs): neither exhibited toxicity to HUVECs nor suppressed their proliferation
proliferation of ATL cells obtained from patients (MTT) [1]: exhibits an inhibitory effect
apoptosis (Hoechst staining) (K562): apoptosis was not observed
cell proliferation, concentration dependence [2]: inhibited in proportion to the DHM2EQ concentrations added
cell proliferation, time course [2]: inhibited in proportion to the DHM2EQ treatment time
mortality or weight loss of the mice [3]: No mortality or weight loss
tumor growth (tumor volume) ([3]; MCF-7 s.c.): significant suppressive effect
proliferation of tumor cells (tumor volume) [4]: significantly suppresses
suppressive effect on proliferation in combination with irradiation ([5]; Colo357 and Panc-1, 10 μg/ml 4 hours after irradiation): synergistic suppressive effect
enhancement of irradiation effect (2.5 Gy to 10 Gy or equivalent) ([5]; Colo357 and Panc-1, combination with irradiation): four-fold
suppressive effect on proliferation, DHMEQ alone ([5]; PK-8 and Colo357, 10 μg/ml, 4-hour contact, cell number after 24 hours): sufficient suppressive effect
radiation dose of equal effect ([5]; PK-8 and Colo357, 10 μg/ml, 4 hours): 2.5 Gy
effectiveness of DHMEQ alone ([5]; Panc-1): less effective
signal of NF-κB (gel shift) (NF-κB): almost lost
